From patent publication US20020028807A1, “Non-nucleoside reverse transcriptase inhibitors” (priority 2000, published 2002)

Assays:
HIV-1 RT wild-type (WT) = molecular target: T1, HIV-1 RT wild-type (WT) (Human immunodeficiency virus type 1 group M subtype B, UniProt P03366); test: Reverse transcriptase (RT) assay, wild-type enzyme; type: biochemical
T1 construct: an HIV RT clone pKRT2 containing only the RT p66 gene regulated by the lac operon/trc promoter; made in house; host or cells: E. coli JM109, vector pKK233-2
Source text: (§1) Among the enzymes for which Human Immunodeficiency Virus (HIV-1) encodes is a reverse transcriptase (1), so-named because it transcribes a DNA copy from an RNA template. This activity can be quantitatively measured in a cell-free enzyme assay and is based upon the observation that reverse transcriptase is able to use a synthetic template poly r(C) primed with a biotinylated oligo d(G) to transcribe a radio-labelled DNA strand utilising 3H-dGTP as a substrate. The assay described below utilises the wild-type enzyme (which is the predominant form of the enzyme observed in patients infected with HIV-1) and can also be used with mutant RT enzymes (for example, Y181C, prepared by site-directed mutagenesis in which the tyrosine residue at codon 181 has been replaced by a cysteine residue) in analogous assay conditions. This assay allows compounds to be evaluated for their effectiveness at inhibiting the mutant enzymes.
(§2) Some HIV-1 IIIB clone BH10 RT mutants were provided by Dr. C.-K. Shih (Boehringer Ingelheim Pharmaceutials Inc., U.S.A.) in the vector pKK233-2 (Pharmacia). Briefly an HIV RT clone pKRT2 containing only the RT p66 gene regulated by the lac operon/trc promoter was obtained from Dr. W. Summers (Yale University) (2). A variety of specific amino acid substitutions were introduced into the wild-type RT gene by site-directed mutagenesis. RT clones were subcloned into the pKK233-2 bacterial expression vector. Clones provided included wild-type, Val106Ala, Tyr181Cys, Tyr188Cys, Tyr188Leu, Gly190Ala and Pro236Leu. Others were made in-house by site-directed mutagenesis of the pKK233-2 RT clones including Lys103Asn, Lys103Asn/Tyr181Cys, Lys103Asn/Leu100Ile, Lys103Asn/Pro225His, and Lys103Asn/Val108Ile.
(§3) Purification of recombinant reverse transcriptase was performed using a combination of methods previously described (3). A single colony from a fresh plate of transformed JM109 cells was used to initiate growth of a pre-culture grown o/n at 37° C. Two liters of growth medium were inoculated with this pre-culture. At OD600˜1.5 (5-6 h at 37° C.), RT gene expression was induced with IPTG (1 mM final), and the fermentation was continued for a few more hours at 37° C. After centrifugation, supernatants were discarded while cell pellets were pooled and stored at −80° C. until purification. Cells were thawed at 4° C. overnight and suspended in lysis buffer (MES 50 mM pH 6, EDTA 1 mM, 10% v/v glyerol, 0.02% w/v OBG, 0.02% w/v sodium azide). Lysozyme was added and the mixture was incubated on ice for 40 minutes. After homogenization using a bounce in presence of lysozyme and sonication, the cells were centrifuged for 30 minutes. Supernatant (S1) was saved and stored at 4° C. The centrifuged pellet was resuspended in extraction buffer (MES 50 mM pH 6, KPO4 50 mM pH 6, KCl 100 mM, 10% v/v glycerol, 0.02% w/v OBG, 0.02% w/v sodium axide) and stirred for 30 minutes at 4° C. This second mixture was centrifuged again and the supernatant (S2) was saved. The above procedure was repeated 2 more times saving supernatants S3 and S4 and one last extraction was performed overnight (S5). Polymin P (0.005% final) was added to the combined supernatants to remove nucleic acids. This solution was stirred for 75 minutes at 4° C. and centrifuged for 1 h. The supernatant (SS1) was precipitated on ice with 20% w/v ammonium sulfate and stirred for 1 h at 4° C. The mixture was then centrifuged and the resulting supernatant (SS2) was precipitated with additional 40% w/v ammonium sulfate (60% total), stirred for 1 h and centrifuged again. The final pellet (P1) was stored overnight at 4° C. before undergoing purification the following day. All steps of the purification were performed at 4° C. unless otherwise stated.
(§4) Pellet (P1) was resuspended into MES 50 mM pH 6, KPO4 10 mM pH 6, KCl 100 mM, 10% v/v glycerol, 0.02% w/v OBG, 0.02% w/v sodium azide. The suspension was dialysis against the same buffer overnight using 12-14 kD MWCO dialysis tubing. […]

HIV-1 RT K103N = molecular target: T2, HIV-1 RT K103N (Human immunodeficiency virus type 1 group M subtype B, UniProt P03366, K702N); test: Reverse transcriptase (RT) assay, K103N mutant; type: biochemical
T2 construct: an HIV RT clone pKRT2 containing only the RT p66 gene regulated by the lac operon/trc promoter; made in house; host or cells: E. coli JM109, vector pKK233-2
Source text: as §1, §2, §3, §4

HIV-1 RT Y181C = molecular target: T3, HIV-1 RT Y181C (Human immunodeficiency virus type 1 group M subtype B, UniProt P03366, Y780C); test: Reverse transcriptase (RT) assay, Y181C mutant; type: biochemical
T3 construct: an HIV RT clone pKRT2 containing only the RT p66 gene regulated by the lac operon/trc promoter; made in house; host or cells: E. coli JM109, vector pKK233-2
Source text: as §1, §2, §3, §4

HIV-1 RT V106A = molecular target: T4, HIV-1 RT V106A (Human immunodeficiency virus type 1 group M subtype B, UniProt P03366, V705A); test: Reverse transcriptase (RT) assay, V106A mutant; type: biochemical
T4 construct: an HIV RT clone pKRT2 containing only the RT p66 gene regulated by the lac operon/trc promoter; made in house; host or cells: E. coli JM109, vector pKK233-2
Source text: as §1, §2, §3, §4

HIV-1 RT Y188L = molecular target: T5, HIV-1 RT Y188L (Human immunodeficiency virus type 1 group M subtype B, UniProt P03366, Y787L); test: Reverse transcriptase (RT) assay, Y188L mutant; type: biochemical
T5 construct: an HIV RT clone pKRT2 containing only the RT p66 gene regulated by the lac operon/trc promoter; made in house; host or cells: E. coli JM109, vector pKK233-2
Source text: as §1, §2, §3, §4

HIV-1 RT K103N/Y181C = molecular target: T6, HIV-1 RT K103N/Y181C (Human immunodeficiency virus type 1 group M subtype B, UniProt P03366, K702N/Y780C); test: Reverse transcriptase (RT) assay, K103N/Y181C mutant; type: biochemical
T6 construct: an HIV RT clone pKRT2 containing only the RT p66 gene regulated by the lac operon/trc promoter; made in house; host or cells: E. coli JM109, vector pKK233-2
Source text: as §1, §2, §3, §4

HIV-1 RT K103N/P225H = molecular target: T7, HIV-1 RT K103N/P225H (Human immunodeficiency virus type 1 group M subtype B, UniProt P03366, K702N/P824H); test: Reverse transcriptase (RT) assay, K103N/P225H mutant; type: biochemical
T7 construct: an HIV RT clone pKRT2 containing only the RT p66 gene regulated by the lac operon/trc promoter; made in house; host or cells: E. coli JM109, vector pKK233-2
Source text: as §1, §2, §3, §4

HIV-1 RT K103N/V108I = molecular target: T8, HIV-1 RT K103N/V108I (Human immunodeficiency virus type 1 group M subtype B, UniProt P03366, K702N/V707I); test: Reverse transcriptase (RT) assay, K103N/V108I mutant; type: biochemical
T8 construct: an HIV RT clone pKRT2 containing only the RT p66 gene regulated by the lac operon/trc promoter; made in house; host or cells: E. coli JM109, vector pKK233-2
Source text: as §1, §2, §3, §4

HIV-1 RT K103N/L100I = molecular target: T9, HIV-1 RT K103N/L100I (Human immunodeficiency virus type 1 group M subtype B, UniProt P03366, K702N/L699I); test: Reverse transcriptase (RT) assay, K103N/L100I mutant; type: biochemical
T9 construct: an HIV RT clone pKRT2 containing only the RT p66 gene regulated by the lac operon/trc promoter; made in house; host or cells: E. coli JM109, vector pKK233-2
Source text: as §1, §2, §3, §4

[1] = test system: HIV coding for wild-type reverse transcriptase (WT RT); test: ELISA (p24) assay of HIV replication in C8166 cell culture, wild-type RT virus; type: cell-based, HIV-1; settings: Human immunodeficiency virus 1, C8166, 72 h, read-out: EC50 WT RT
Description: (§5) Compounds of the invention were tested for their ability to inhibit HIV replication in cell culture in a 96-well plate assay. Complete RPMI 1640, consisting of RPMI 1640+10% fetal bovine serum, 10 μg/ml gentamycin and 10 μM β-mercaptoethanol was used for dilution of the compound as well as cell growth medium. The T lymphocyte cell line C8166 was infected at a multiplicity of infection of 0.001 with viruses coding for wild-type and mutant reverse transcriptase. Cells were then incubated for three days in the presence of serial dilutions of the compounds of the invention. The supernatant was pooled from eight replica wells and the concentration of extracellular p24 was determined using a commercially available HIV-1 p24 antigen assay kit (Beckman-Coulter®). The level of inhibition (% inhibition) was calculated with the following equation: [formula]

[2] = test system: HIV coding for mutant reverse transcriptase K103N/Y181C; test: ELISA (p24) assay of HIV replication in C8166 cell culture, K103N/Y181C virus; type: cell-based, HIV-1; settings: Human immunodeficiency virus 1, C8166, 72 h, read-out: EC50 K103N/Y181C
Description: as §5

HIV-1 RT P23L = molecular target: T10, HIV-1 RT P23L (Human immunodeficiency virus type 1 group M subtype B, UniProt P03366, P835L); test: Reverse transcriptase (RT) assay, P23L mutant; type: biochemical
T10 construct: an HIV RT clone pKRT2 containing only the RT p66 gene regulated by the lac operon/trc promoter; made in house; host or cells: E. coli JM109, vector pKK233-2
Source text: as §1, §2
Purification of recombinant reverse transcriptase was performed using a combination of methods previously described (3). A single colony from a fresh plate of transformed JM109 cells was used to initiate growth of a pre-culture grown o/n at 37° C. Two liters of growth medium were inoculated with this pre-culture. At OD600˜1.5 (5-6 h at 37° C.), RT gene expression was induced with IPTG (1 mM final), and the fermentation was continued for a few more hours at 37° C. After centrifugation, supernatants were discarded while cell pellets were pooled and stored at −80° C. until purification. Cells were thawed at 4° C. overnight and suspended in lysis buffer (MES 50 mM pH 6, EDTA 1 mM, 10% v/v glyerol, 0.02% w/v OBG, 0.02% w/v sodium azide). Lysozyme was added and the mixture was incubated on ice for 40 minutes. After homogenization using a bounce in presence of lysozyme and sonication, the cells were centrifuged for 30 minutes. Supernatant (S1) was saved and stored at 4° C. […]

HIV-1 RT G190A = molecular target: T11, HIV-1 RT G190A (Human immunodeficiency virus type 1 group M subtype B, UniProt P03366, G789A); test: Reverse transcriptase (RT) assay, G190A mutant; type: biochemical
T11 construct: an HIV RT clone pKRT2 containing only the RT p66 gene regulated by the lac operon/trc promoter; made in house; host or cells: E. coli JM109, vector pKK233-2
Source text: as §1, §2, §3, §4

HIV-1 RT Y188C = molecular target: T12, HIV-1 RT Y188C (Human immunodeficiency virus type 1 group M subtype B, UniProt P03366, Y787C); test: Reverse transcriptase (RT) assay, Y188C mutant; type: biochemical
T12 construct: an HIV RT clone pKRT2 containing only the RT p66 gene regulated by the lac operon/trc promoter; made in house; host or cells: E. coli JM109, vector pKK233-2
Source text: as §1, §2, §3, §4

Compound	IC50 (HIV-1 RT wild-type (WT))	IC50 (HIV-1 RT K103N)	IC50 (HIV-1 RT Y181C)	IC50 (HIV-1 RT V106A)	IC50 (HIV-1 RT Y188L)	IC50 (HIV-1 RT K103N/Y181C)	IC50 (HIV-1 RT K103N/P225H)	IC50 (HIV-1 RT K103N/V108I)	IC50 (HIV-1 RT K103N/L100I)	EC50 [1]	EC50 [2]	IC50 (HIV-1 RT P23L)	IC50 (HIV-1 RT G190A)	IC50 (HIV-1 RT Y188C)
CCN1c2ncc(CCOc3cccc4c3ccc[n+]4[O-])cc2C(=O)N(C)c2ccc(F)nc21 [compound 18, 5,11-Dihydro-11-ethyl-2-fluoro-5-methyl-8-{2-{(1-oxido-5-quinolinyl)-oxy}ethyl}-6H-dipyrido[3,2-b:2′,3′-e][1,4]diazepin-6-one]	11 nM	37 nM	41 nM	737 nM	1170 nM	146 nM	20 nM	96 nM	158 nM	0.34 nM	9.5 nM			
CCN1c2ncc(CCOc3ccnc4ccccc34)cc2C(=O)N(C)c2ccc(Cl)nc21 [compound 2, 2-Chloro-5,11-dihydro-11-ethyl-5-methyl-8-{2-(4-quinolinyloxy)ethyl}-6H-dipyrido[3,2-b:2′,3′-e][1,4]diazepin-6-one]	5.5 nM	28.5 nM	25 nM	148 nM	258 nM	24.5 nM	27 nM	31 nM	46 nM	2.2 nM		50.5 nM	14.5 nM	7.1 nM
